# Assay results taken from PMC11571108, “Targeting PfCLK3 with Covalent Inhibitors: A Novel Strategy for Malaria Treatment” (Journal of Medicinal Chemistry, 2024).
# pIC50: −log10 of the molar value. “And” between values parts separate entries of the source, which are not always exact repeats. Equal entries are not always repeated.
# How the values were obtained:
# CDK6/cyclinD3(h) = CDK6/cyclinD3(h) (Homo sapiens, UniProt Q00534); test: biochemical
# Protocol: (§2) Compounds were evaluated using Eurofins Discovery’s KinaseProfiler Diversity Panel of 58 representative kinases. KinaseProfiler is a radiometric assay using [γ-^33P]-ATP to measure the phosphorylation of individual kinase substrates. A representative protocol for Abl is given below.
# (§3) The reaction is initiated by the addition of the Mg/ATP mix. After incubation for 40 min at room temperature, the reaction is stopped by the addition of phosphoric acid to a concentration of 0.5%.
# CHK1(h) = CHK1(h) (Homo sapiens, UniProt O14757); test: biochemical
# Protocol: as §2, §3
# Abl(h) = Abl(h) (Homo sapiens, UniProt P00519); test: biochemical
# Protocol: as §2, §3
# DRAK1(h) = DRAK1(h) (Homo sapiens, UniProt Q9UEE5); test: biochemical
# Protocol: as §2, §3
# ASK1(h) = ASK1(h) (Homo sapiens, UniProt Q99683); test: biochemical
# Protocol: as §2, §3
# CDK2/cyclinA(h) = CDK2/cyclinA(h) (Homo sapiens, UniProt P24941); test: biochemical
# Protocol: as §2, §3
# [1] = molecular target: T1, PI3 Kinase (p110b/p85a)(h) (Homo sapiens, UniProt P42338); test: KinaseProfiler radiometric assay; type: biochemical; settings: 1 µM compound
# T1 construct: purchased Eurofins Discovery KinaseProfiler
# Excerpt: (§1) A representative protocol for Abl is given below.
# [2] = molecular target: T2, PI3 Kinase (p110d/p85a)(h) (Homo sapiens, UniProt O00329); test: KinaseProfiler radiometric assay; type: biochemical; settings: 1 µM compound
# T2 construct: purchased Eurofins Discovery KinaseProfiler
# Excerpt: as §1
# [3] = molecular target: T3, PI3 Kinase (p110a/p85a)(h) (Homo sapiens, UniProt P42336); test: KinaseProfiler radiometric assay; type: biochemical; settings: 1 µM compound
# T3 construct: purchased Eurofins Discovery KinaseProfiler
# Excerpt: as §1
# ALK(h) = ALK(h) (Homo sapiens, UniProt Q9UM73); test: biochemical
# Protocol: as §2, §3
# CaMKI(h) = CaMKI(h) (Homo sapiens, UniProt Q14012); test: biochemical
# Protocol: as §2, §3
# [4] = molecular target: T4, recombinant full-length PfCLK3 (Plasmodium falciparum, UniProt Q8IIL5); test: TR-FRET protein kinase assay; type: biochemical; settings: Apparent pIC50 (PfCLK3), 15 min preincubation, 2 h incubation
# T4 sequence (Q8IIL5 1-699): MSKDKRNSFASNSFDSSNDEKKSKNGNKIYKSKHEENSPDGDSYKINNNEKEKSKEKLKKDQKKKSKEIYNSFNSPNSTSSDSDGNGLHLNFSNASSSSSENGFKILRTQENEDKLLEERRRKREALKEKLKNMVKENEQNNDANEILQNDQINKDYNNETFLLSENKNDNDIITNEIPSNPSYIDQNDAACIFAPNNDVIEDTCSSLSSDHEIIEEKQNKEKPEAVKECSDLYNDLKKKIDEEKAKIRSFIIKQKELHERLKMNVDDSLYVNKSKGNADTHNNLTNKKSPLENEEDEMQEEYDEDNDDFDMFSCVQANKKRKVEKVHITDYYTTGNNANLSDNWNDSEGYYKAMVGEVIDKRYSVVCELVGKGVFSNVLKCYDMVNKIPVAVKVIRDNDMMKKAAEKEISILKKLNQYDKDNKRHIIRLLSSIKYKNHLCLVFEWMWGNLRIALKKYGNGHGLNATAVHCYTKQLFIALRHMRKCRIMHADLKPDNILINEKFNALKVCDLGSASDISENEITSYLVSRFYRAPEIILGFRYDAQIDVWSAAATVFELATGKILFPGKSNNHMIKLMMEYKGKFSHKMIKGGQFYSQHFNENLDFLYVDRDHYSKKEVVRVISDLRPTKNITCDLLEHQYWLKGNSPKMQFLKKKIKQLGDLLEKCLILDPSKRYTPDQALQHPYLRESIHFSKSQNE
# Protocol: To a black 384-well plate was added 2.5 μL of each concentration of inhibitor serially diluted 1 in 3, 11 times from a 40 μM (4×) top concentration normalized to 4% DMSO, and 5 μL of 50 nM (2×) recombinant PfCLK3. Both were dissolved in kinase buffer (50 mM HEPES 7.4, 1 mM EGTA, 1 mM MgCl2, 0.01% Tween, and 1 mM TCEP). […] 5 μL of detection mix (30 mM EDTA, 3 nM AntiMBP in 1× PerkinElmer Lance detection buffer) was added to quench the kinase reaction, and plates were incubated at room temperature in the dark for 1 h.
# full-length PfCLK3 = settings: PfCLK3 5 μg; triplicate wells
# Protocol: To a 384-well thermal shift plate, 5 μL protein thermal shift buffer (Thermo Fisher Scientific), 5 μg full length PfCLK3 (4.17 μL, 1.2 mg/mL), 8.13 μL thermal shift buffer (Thermo Fisher Scientific), 0.2 μL 10 mM compound or vehicle (DMSO), and 2.5 μL protein thermal shift dye (Thermo Fisher Scientific) were added in triplicate. […] 5 Qpcr (Thermo Fisher Scientific). Fluorescence was recorded as proteins unfolded. The Boltzmann distribution was calculated and Tm obtained using Protein Thermal Shift Software v1.4 (Thermo Fisher Scientific).
# CDK9/cyclin T1(h) = CDK9/cyclin T1(h) (Homo sapiens, UniProt P50750); test: biochemical
# Protocol: as §2, §3
# Microsomal stability = type: in vitro ADME; settings: human, liver microsomes, 0.5 mg/mL microsomes, 37 °C
# Protocol: Peak areas were determined from extracted ion chromatograms.
# CDK7/cyclinH/MAT1(h) = CDK7/cyclinH/MAT1(h) (Homo sapiens, UniProt P50613); test: biochemical
# Protocol: as §2, §3
# physchem = settings: pH 7.5, GSH t1/2, 37 °C, 10:1 ratio GSH:compound
# CDK1/cyclinB(h) = CDK1/cyclinB(h) (Homo sapiens, UniProt P06493); test: biochemical
# Protocol: as §2, §3
# CK2α2(h) = CK2α2(h) (Homo sapiens, UniProt P19784); test: biochemical
# Protocol: as §2, §3
# AMPKα1(h) = AMPKα1(h) (Homo sapiens, UniProt Q13131); test: biochemical
# Protocol: as §2, §3
# Chain of CK2α2(h) (P19784 whole entry): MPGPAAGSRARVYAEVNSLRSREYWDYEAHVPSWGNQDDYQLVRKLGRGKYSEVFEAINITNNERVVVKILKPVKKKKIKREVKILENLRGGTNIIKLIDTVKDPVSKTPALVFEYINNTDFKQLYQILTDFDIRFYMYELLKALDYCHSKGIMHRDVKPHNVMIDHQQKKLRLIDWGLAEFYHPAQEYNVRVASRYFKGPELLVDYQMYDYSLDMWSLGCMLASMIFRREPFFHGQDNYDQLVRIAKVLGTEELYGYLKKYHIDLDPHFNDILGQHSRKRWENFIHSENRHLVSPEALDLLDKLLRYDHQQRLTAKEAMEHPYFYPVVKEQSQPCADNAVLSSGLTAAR
# Chain of Abl(h) (P00519 whole entry): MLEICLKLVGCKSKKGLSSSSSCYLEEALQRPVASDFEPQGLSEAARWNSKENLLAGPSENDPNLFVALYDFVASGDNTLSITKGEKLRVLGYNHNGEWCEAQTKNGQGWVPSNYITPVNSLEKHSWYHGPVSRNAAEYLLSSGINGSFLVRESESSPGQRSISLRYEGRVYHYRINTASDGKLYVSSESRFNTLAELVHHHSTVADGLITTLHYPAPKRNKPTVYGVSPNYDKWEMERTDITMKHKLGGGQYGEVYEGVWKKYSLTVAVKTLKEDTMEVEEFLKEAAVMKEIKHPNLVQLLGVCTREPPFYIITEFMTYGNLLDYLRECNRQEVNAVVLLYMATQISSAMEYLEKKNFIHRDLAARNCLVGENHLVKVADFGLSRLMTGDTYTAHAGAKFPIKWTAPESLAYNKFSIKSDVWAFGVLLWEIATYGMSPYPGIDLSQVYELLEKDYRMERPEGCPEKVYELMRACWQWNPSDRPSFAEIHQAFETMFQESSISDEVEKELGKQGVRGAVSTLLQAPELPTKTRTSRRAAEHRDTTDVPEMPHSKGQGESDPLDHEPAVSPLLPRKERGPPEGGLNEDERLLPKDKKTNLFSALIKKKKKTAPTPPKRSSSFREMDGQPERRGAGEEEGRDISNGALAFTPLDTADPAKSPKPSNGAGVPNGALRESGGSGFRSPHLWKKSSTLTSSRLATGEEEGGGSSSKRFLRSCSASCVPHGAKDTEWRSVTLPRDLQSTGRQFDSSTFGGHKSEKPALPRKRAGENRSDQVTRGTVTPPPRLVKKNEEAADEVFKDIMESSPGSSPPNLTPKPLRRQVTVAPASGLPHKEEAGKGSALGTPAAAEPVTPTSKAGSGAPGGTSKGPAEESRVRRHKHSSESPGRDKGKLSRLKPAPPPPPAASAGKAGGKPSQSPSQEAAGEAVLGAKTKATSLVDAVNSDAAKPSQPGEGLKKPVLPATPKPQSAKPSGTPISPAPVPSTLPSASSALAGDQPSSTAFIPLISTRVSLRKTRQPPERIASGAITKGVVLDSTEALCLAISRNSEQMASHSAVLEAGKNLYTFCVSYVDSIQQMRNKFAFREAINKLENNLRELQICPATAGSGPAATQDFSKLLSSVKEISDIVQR
# Chain of CDK1/cyclinB(h) (P06493 whole entry): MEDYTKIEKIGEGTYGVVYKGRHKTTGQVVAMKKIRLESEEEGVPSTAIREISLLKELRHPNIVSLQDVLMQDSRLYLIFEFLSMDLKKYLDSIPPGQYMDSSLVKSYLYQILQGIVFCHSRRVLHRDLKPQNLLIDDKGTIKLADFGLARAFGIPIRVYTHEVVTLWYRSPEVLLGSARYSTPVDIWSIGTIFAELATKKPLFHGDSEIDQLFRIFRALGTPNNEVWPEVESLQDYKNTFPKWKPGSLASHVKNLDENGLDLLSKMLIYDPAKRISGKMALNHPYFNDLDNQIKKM
# Chain of CDK1/cyclinB(h) (P14635 whole entry partner): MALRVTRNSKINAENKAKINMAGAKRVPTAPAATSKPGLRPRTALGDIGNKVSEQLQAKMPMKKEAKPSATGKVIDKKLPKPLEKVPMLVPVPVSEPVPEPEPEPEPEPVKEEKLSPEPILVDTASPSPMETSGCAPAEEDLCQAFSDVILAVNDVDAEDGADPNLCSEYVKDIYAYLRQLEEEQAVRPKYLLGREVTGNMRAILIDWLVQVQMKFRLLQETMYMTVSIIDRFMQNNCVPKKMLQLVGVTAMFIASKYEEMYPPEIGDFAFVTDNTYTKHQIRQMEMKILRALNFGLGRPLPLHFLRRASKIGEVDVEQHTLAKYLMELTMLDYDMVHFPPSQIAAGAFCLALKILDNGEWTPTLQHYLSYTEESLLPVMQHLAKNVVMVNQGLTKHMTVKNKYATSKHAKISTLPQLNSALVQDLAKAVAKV
# Chain of CaMKI(h) (Q14012 whole entry): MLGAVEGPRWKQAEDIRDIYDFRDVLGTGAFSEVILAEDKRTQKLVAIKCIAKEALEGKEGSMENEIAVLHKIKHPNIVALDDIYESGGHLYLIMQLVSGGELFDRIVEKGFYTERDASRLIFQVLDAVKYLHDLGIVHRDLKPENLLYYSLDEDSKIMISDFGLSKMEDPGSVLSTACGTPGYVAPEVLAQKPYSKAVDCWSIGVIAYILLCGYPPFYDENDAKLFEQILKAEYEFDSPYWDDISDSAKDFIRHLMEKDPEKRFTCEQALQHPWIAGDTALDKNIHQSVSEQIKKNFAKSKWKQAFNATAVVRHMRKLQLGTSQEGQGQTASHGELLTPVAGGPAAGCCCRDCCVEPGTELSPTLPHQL
# Chain of CDK9/cyclin T1(h) (P50750 whole entry): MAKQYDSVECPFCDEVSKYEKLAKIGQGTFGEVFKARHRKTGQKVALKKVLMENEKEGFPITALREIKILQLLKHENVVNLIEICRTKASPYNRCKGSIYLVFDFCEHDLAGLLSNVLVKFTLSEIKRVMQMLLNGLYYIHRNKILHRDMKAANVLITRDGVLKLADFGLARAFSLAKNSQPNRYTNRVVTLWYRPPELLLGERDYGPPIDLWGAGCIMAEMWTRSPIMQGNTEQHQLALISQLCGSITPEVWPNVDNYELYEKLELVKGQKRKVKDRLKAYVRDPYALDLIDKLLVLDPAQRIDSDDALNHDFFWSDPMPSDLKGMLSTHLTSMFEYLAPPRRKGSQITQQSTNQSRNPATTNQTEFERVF
# Chain of CDK9/cyclin T1(h) (O60563 whole entry partner): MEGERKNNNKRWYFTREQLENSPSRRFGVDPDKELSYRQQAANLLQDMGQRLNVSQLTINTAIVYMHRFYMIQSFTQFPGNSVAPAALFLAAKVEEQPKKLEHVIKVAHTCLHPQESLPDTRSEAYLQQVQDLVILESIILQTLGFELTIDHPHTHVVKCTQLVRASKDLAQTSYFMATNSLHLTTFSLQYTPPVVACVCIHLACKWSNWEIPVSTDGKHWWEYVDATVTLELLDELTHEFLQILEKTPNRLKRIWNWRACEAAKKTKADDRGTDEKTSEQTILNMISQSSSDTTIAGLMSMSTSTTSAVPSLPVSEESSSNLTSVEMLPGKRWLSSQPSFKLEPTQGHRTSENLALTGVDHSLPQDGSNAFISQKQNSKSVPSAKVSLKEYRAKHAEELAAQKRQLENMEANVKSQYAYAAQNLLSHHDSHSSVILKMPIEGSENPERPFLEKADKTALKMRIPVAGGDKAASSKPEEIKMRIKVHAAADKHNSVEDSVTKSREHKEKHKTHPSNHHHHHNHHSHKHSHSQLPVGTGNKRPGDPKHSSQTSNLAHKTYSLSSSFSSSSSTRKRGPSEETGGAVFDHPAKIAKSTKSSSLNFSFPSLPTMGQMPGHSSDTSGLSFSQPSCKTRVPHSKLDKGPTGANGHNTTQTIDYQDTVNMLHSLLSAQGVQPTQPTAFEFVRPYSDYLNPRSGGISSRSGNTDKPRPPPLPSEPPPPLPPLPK
# Chain of ASK1(h) (Q99683 whole entry): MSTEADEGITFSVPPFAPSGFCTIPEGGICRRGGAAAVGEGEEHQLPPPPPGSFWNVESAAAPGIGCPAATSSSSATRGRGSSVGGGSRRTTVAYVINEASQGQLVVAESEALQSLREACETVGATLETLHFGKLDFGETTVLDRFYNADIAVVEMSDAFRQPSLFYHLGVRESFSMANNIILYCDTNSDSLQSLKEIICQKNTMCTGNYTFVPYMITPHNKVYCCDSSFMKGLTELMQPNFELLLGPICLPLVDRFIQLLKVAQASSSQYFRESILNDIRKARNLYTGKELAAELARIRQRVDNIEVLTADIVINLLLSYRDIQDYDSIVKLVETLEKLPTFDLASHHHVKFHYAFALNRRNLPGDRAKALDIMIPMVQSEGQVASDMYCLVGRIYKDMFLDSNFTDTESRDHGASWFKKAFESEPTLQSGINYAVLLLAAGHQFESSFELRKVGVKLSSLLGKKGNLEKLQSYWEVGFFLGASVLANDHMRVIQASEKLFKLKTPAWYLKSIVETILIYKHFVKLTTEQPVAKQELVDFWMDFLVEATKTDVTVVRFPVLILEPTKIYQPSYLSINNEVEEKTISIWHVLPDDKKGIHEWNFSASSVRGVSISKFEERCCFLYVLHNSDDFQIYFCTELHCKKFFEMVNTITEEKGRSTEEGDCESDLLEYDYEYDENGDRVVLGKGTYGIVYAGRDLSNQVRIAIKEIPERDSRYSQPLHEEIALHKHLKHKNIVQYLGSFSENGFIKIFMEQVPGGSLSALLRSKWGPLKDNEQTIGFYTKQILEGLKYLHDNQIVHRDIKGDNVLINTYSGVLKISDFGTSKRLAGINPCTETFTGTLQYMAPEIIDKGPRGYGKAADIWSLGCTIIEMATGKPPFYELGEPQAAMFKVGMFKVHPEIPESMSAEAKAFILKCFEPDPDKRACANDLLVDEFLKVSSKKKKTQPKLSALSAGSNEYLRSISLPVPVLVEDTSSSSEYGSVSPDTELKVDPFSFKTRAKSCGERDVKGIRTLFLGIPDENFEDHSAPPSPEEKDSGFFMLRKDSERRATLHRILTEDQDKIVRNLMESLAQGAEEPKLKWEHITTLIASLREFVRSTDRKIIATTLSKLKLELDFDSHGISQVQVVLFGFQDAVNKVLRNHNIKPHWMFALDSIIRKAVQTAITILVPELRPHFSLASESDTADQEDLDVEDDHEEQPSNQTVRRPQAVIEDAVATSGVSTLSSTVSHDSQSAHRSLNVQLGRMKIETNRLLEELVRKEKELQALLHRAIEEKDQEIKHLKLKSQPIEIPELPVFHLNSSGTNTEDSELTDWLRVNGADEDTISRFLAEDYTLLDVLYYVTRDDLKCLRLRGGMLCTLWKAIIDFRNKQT
smiles,measurement,setting,value
"CCN(CC)Cc1ccc(OC)c(-c2cc3c(-c4ccc(C(=O)O)c(C(C)C)c4)ccnc3[nH]2)c1 [Compound 1, TCMDC-135051]",remaining activity at 1 µM,CDK6/cyclinD3(h),82%
same,remaining activity at 1 µM,CHK1(h),101%
same,remaining activity at 1 µM,Abl(h),68%
same,remaining activity at 1 µM,DRAK1(h),83%
same,remaining activity at 1 µM,ASK1(h),92%
same,remaining activity at 1 µM,CDK2/cyclinA(h),30%
same,remaining activity at 1 µM,[1],99%
same,remaining activity at 1 µM,[2],73%
same,remaining activity at 1 µM,[3],100%
same,remaining activity at 1 µM,ALK(h),30%
same,remaining activity at 1 µM,CaMKI(h),100%
same,pIC50,[4]; [ATP] = 500 μM,7.06
same,pIC50,[4]; [ATP] = 3 mM,6.35
same,pIC50,[4]; [ATP] = Km (5 μM),8.11
same,Tm B,full-length PfCLK3,66.66 and 66.67 and 66.65
same,remaining activity at 1 µM,CDK9/cyclin T1(h),6%
same,microsomal CLint at 1 μM,Microsomal stability; read-out: HLM CLint (intrinsic clearance),< 7.5 µL/min/mg
same,half-life at 1 μM,Microsomal stability; read-out: HLM t1/2,> 3.07 h
same,remaining activity at 1 µM,CDK7/cyclinH/MAT1(h),102%
same,half-life at 1 mM,physchem,> 72 h
same,remaining activity at 1 µM,CDK1/cyclinB(h),15%
same,remaining activity at 1 µM,CK2α2(h),39%
same,remaining activity at 1 µM,AMPKα1(h),46%
